Assay results from patent publication US20240246920A1, “TRIAZOLE DERIVATIVES WITH ANTIFUNGAL ACTIVITY” (King's College London, priority 2020, published 2024).
Converted amounts (≈) assume the structure as drawn. Like-named read-outs stand apart in the source and are kept apart here.

Key:
C. albicans 3363 = experiment: Candida albicans panel MIC; type: cell-based; conditions: Table 6, Candida albicans panel
Outline: (§1)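 Broth microdilution in RPMI 1640 with MOPS and 2% glucose, pH 7.0; compounds serially diluted from 128 to 0.25 μg/mL. Inoculum 0.5-5×10^5/mL, 24 h at 37° C. MIC is the lowest concentration giving ≥50% growth inhibition versus the drug-free control, read at OD530.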

C. albicans 3880 = experiment: Candida albicans panel MIC; type: cell-based; conditions: Table 6, Candida albicans panel
Outline: as §1

C. albicans 8112 = experiment: Candida albicans panel MIC; type: cell-based; conditions: Table 6, Candida albicans panel
Outline: as §1

C. albicans 3881 = experiment: Candida albicans panel MIC; type: cell-based; conditions: Table 6, Candida albicans panel
Outline: as §1

C. albicans 3645 = experiment: Candida albicans panel MIC; type: cell-based; conditions: Table 6, Candida albicans panel
Outline: as §1

C. albicans 3990 = experiment: Candida albicans panel MIC; type: cell-based; conditions: Table 6, Candida albicans panel
Outline: as §1

C. albicans 3882 = experiment: Candida albicans panel MIC; type: cell-based; conditions: Table 6, Candida albicans panel
Outline: as §1

C. albicans NCPF3281 = experiment: Candida panel MIC, serial dilution in 96-well plates; type: cell-based, Candida albicans
Outline: (§2)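 Broth microdilution in RPMI 1640/MOPS/2% glucose, pH 7.0, compound serially diluted from 128 to 0.25 μg/mL. Inoculum 0.5-5×10^5/mL from overnight 37 °C cultures; plates incubated 24 h at 37 °C. Growth read at OD530; MIC is lowest concentration giving ≥50% inhibition versus drug-free growth control.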

C. krusei NCPF3876 = experiment: microbe, parasite or virus in culture; type: cell-based, Candida krusei; conditions: Pichia kudriavzevii
Outline: (§3)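 MIC taken as lowest concentration inhibiting growth ≥50% relative to drug-free control, from OD530 after 24 hours at 37° C. Fungi at 0.5-5×10^5/mL were exposed to serially diluted compound in RPMI 1640/MOPS/2% glucose medium adjusted to pH 7.0.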

C. auris 8977 = experiment: Candida panel MIC, serial dilution in 96-well plates; type: cell-based, Candida auris
Outline: (§4)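 MIC is the lowest concentration inhibiting growth by ≥50% relative to the drug-free control, read at OD530 nm after 24 hours at 37° C. Fungi were seeded at 0.5-5×10^5/mL in MOPS-buffered RPMI 1640 with 2% glucose, pH 7.0; compounds came from DMSO solutions diluted in media.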

C. auris 8971 = experiment: as above; type: cell-based, Candida auris
Outline: as §4

C. auris 8984 = experiment: as above; type: cell-based, Candida auris
Outline: as §4

[1] = system: C. auris (e.g. TDG1912, TDG2506 or 8984); experiment: microbe, parasite or virus in culture; type: cell-based, Candida auris; conditions: Candidozyma auris; efflux pump table; read-out: MIC Fluconazole, C. auris (e.g. TDG1912, TDG2506 or 8984)
C. tropicalis NCPF8760 = experiment: Candida panel MIC, serial dilution in 96-well plates; type: cell-based
Outline: as §2

Candida auris TDG2512 = experiment: as above; type: cell-based; conditions: Candidozyma auris, TDG2512; Table 4, extended panel; 24 hours, ≥50% inhibition; read-out: MIC Candida auris TDG2512
Outline: as §2

C. auris TDG1912 = experiment: as above; type: cell-based; conditions: Candidozyma auris, TDG1912; Table 4; 24 hours, ≥50% inhibition; read-out: MIC C. auris TDG1912
Outline: as §2

Candida auris TDG1102 = experiment: as above; type: cell-based; conditions: Candidozyma auris, TDG1102; Table 4, extended panel; 24 hours, ≥50% inhibition; read-out: MIC Candida auris TDG1102
Outline: as §2

C. glabrata NCPF8018 = experiment: as above; type: cell-based, Candida glabrata; conditions: Nakaseomyces glabratus
Outline: as §3

[2] = system: Aspergillus fumigatus ATCC 13073; experiment: Aspergillus panel MIC; type: cell-based; conditions: Table 8
Protocol: (§5) Starter cultures of fungal strains to be tested were grown in 3 mL of RPMI 2% glucose media incubated at 37° C. with shaking at 200 rpm overnight. The culture media used was 900 mL H2O; 10.4 g RPMI 1640 (with L-glutamine and a pH indicator but without bicarbonate); 34.5 g MOPS and 18 g glucose. The pH of the media was adjusted to 7.0 with 1 M sodium hydroxide.
(§6) Solutions of the compound to be tested were prepared by dissolving the compound in DMSO and subsequently into media to the desired concentrations. 200 μL of compound solution was then added to the wells of the 96-well plate using a serial dilution method row-by row of the plate to give a compound concentration gradient across the plate of from 128 μg/mL to 0.25 μg/mL. The last two rows of each plate were control rows containing the culture media alone and the media plus fungi.
(§7) The fungi starter cultures were diluted 1:10 in water in cuvettes. This was then further diluted to an optical density (OD600) of 0.01 in media. 100 μL of the fungi was added to each well giving a starting concentration of fungus of 0.5-5×10^5/mL. One species of fungus was used on each plate. The plates were then held at 37° C. for 24 hours.
(§8) A plate reader was used to measure growth in each well at OD530 nm and the MIC was determined for each test compound. The MIC is defined as the lowest concentration giving rise to inhibition of ≥50% of that of the drug-free control well containing the fungus and media.
(§9) The compound of Example 2 (which corresponds to compound number 2) was tested against a panel of Aspergillus strains using a method analogous to that described above for the Candida Panel.

[3] = system: Aspergillus carbonarius ATCC 8740; experiment: Aspergillus panel MIC; type: cell-based; conditions: Table 8
Protocol: as §5, §6, §7, §8, §9

[4] = system: Aspergillus fulavus ATCC 204304; experiment: Aspergillus panel MIC; type: cell-based; conditions: Table 8
Protocol: as §5, §6, §7, §8, §9

[5] = system: Aspergillus fumigatus ATCC 204305; experiment: Aspergillus panel MIC; type: cell-based; conditions: Table 8
Protocol: as §5, §6, §7, §8, §9

[6] = system: Aspergillus fumigatus ATCC 16424; experiment: Aspergillus panel MIC; type: cell-based; conditions: Table 8
Protocol: as §5, §6, §7, §8, §9

**Q.** What does the source list for `OC(Cn1cncn1)(Cn1cncn1)c1ccc(F)cc1F` [Fluconazole, fluconazole, reference compound]?
**A.** MIC (C. albicans 3363): 8 µg/mL (≈ 26.1 µM); MIC (C. albicans 3880): 16 µg/mL (≈ 52.2 µM); MIC (C. albicans 8112): 0.125 µg/mL (≈ 0.408 µM); MIC (C. albicans 3881): 8 µg/mL (≈ 26.1 µM); MIC (C. albicans 3645): ≤ 0.125 µg/mL; MIC (C. albicans 3990): 8 µg/mL (≈ 26.1 µM); MIC (C. albicans 3882): 16 µg/mL (≈ 52.2 µM); MIC (C. albicans NCPF3281; Candida albicans, NCPF3281, read-out: MIC Fluconazole, C. albicans 3281): > 128 µg/mL; MIC (C. albicans NCPF3281; Candida albicans, NCPF3281, Table 4, common panel, 24 hours, ≥50% inhibition, read-out: MIC C. albicans NCPF3281): ≤ 0.125 µg/mL; MIC (C. albicans NCPF3281; NCPF3281, Table 6, Candida albicans panel, read-out: MIC C. albicans NCPF3281): ≤ 0.125 µg/mL; MIC (C. krusei NCPF3876; NCPF3876, read-out: MIC C. Krusei NCPF3876): 0.5 to 8 µg/mL (≈ 1.63 to 26.1 µM); MIC (C. krusei NCPF3876; NCPF3876, read-out: MIC Fluconazole, C. krusei 3876): 32 µg/mL (≈ 104 µM); MIC (C. krusei NCPF3876; NCPF3876, Table 4, common panel, 24 hours, ≥50% inhibition, read-out: MIC C. krusei NCPF3876): 0.5 to 8 µg/mL (≈ 1.63 to 26.1 µM); MIC (C. auris 8977; Candidozyma auris, 8977, 24 h, read-out: MIC C. auris 8977): 32 µg/mL (≈ 104 µM); MIC (C. auris 8977; Candidozyma auris, 8977, read-out: MIC C. auris 8977): 16 µg/mL (≈ 52.2 µM); MIC (C. auris 8971; Candidozyma auris, 8971, 24 h, read-out: MIC C. auris 8971): 16 µg/mL (≈ 52.2 µM); MIC (C. auris 8971; Candidozyma auris, 8971, read-out: MIC C. auris 8971): 32 µg/mL (≈ 104 µM); MIC (C. auris 8984; Candidozyma auris, 8984, 24 h, read-out: MIC C. auris 8984): > 128 µg/mL; MIC (C. auris 8984; Candidozyma auris, 8984, read-out: MIC C. auris 8984): > 128 µg/mL; MIC [1]: > 128 µg/mL; MIC (C. tropicalis NCPF8760; NCPF8760, Table 4, common panel, 24 hours, ≥50% inhibition, read-out: MIC C. tropicalis NCPF8760): 4 to 8 µg/mL (≈ 13.1 to 26.1 µM); MIC (C. tropicalis NCPF8760; NCPF8760, read-out: MIC C. Tropicalis NCPF8760): 4 to 8 µg/mL (≈ 13.1 to 26.1 µM); MIC (Candida auris TDG2512): 16 µg/mL (≈ 52.2 µM); MIC (C. auris TDG1912): > 128 µg/mL; MIC (Candida auris TDG1102): 64 µg/mL (≈ 209 µM); MIC (C. glabrata NCPF8018; NCPF8018, read-out: MIC C. Glabrata NCPF8018): 0.5 to 4 µg/mL (≈ 1.63 to 13.1 µM); MIC (C. glabrata NCPF8018; NCPF8018, read-out: MIC Fluconazole, C. glabrata 8018): > 128 µg/mL; MIC (C. glabrata NCPF8018; NCPF8018, Table 4, common panel, 24 hours, ≥50% inhibition, read-out: MIC C. glabrata NCPF8018): 0.5 to 4 µg/mL (≈ 1.63 to 13.1 µM); Minimum inhibitory concentration Aspergillus fumigatus ATCC 13073 [2]: >64; Minimum inhibitory concentration Aspergillus carbonarius ATCC 8740 [3]: >64; Minimum inhibitory concentration Aspergillus fulavus ATCC 204304 [4]: >64; Minimum inhibitory concentration Aspergillus fumigatus ATCC 204305 [5]: >64; Minimum inhibitory concentration Aspergillus fumigatus ATCC 16424 [6]: >64
